These results are taken from patent US20220096421A1, “Active Ingredient, Pharmaceutical Composition, and Medicinal Product for HIV and AIDS Therapy” (priority 2019, published 2022).

The test system of data set [1] is HIV-1. In words: Efficacy, safety and optimal dosage study in previously untreated HIV-1-infected patients versus Efavirenz. The following applies: for development of HIV-1 resistance: patients, at the studied doses; for viral load decrease: week 12; for viral load decrease / viral load change: 20 mg MMSCs of formula Ib, 600 mg Efavirenz; for viral load change: week 24. The procedure: Doses of 20 mg/day (60 patients) and 40 mg/day (60 patients) of MMSCs of formula Ib were studied versus 600 mg/day of Efavirenz (30 patients).
Doses of 20.7 mg/day (60 patients) and 41.4 mg/day (60 patients) of MMSCs of formula Ib were studied in comparison with Efavirenz (600 mg/day, 30 patients).

Data set [2] in a line: Pharmacokinetics in healthy volunteers with repeated weekly administration. Format: in vivo, human. The conditions noted are these: for Cmax / concentration at 168 h: human, in vivo, oral; for Cmax: read-out: Cmax of active metabolite Ia in the first week; for concentration at 168 h: read-out: concentration of active metabolite Ia a week later (168 hours).
Data set [3] is described as follows: Clinical trial in healthy volunteers, pharmacokinetics with daily administration of capsules. The conditions noted are these: constant administration, average.
Method: The concentration-time pattern of metabolite Ia in the blood was evaluated by its content in the plasma and blood cells.

Molecules are shown by their SMILES. Entries after “also recorded” stand apart in the source; their conditions may differ. Like-named read-outs stand apart in the source and are kept apart here.

With `O=C1Nc2ccc(Cl)cc2[C@@](C#CC2CC2)(C(F)(F)F)O1` [Efavirenz, reference compound], in data set [1], the “development of HIV-1 resistance” value is on record as “No development of HIV-1 resistance was established; also recorded: has not been established”, the viral load decrease is −2.7±1.0 and the viral load change is given as −3.3±0.8.

As for `N#Cc1cc(Cl)cc(Oc2c(Br)ccc(CC(=O)Nc3ccc(S(N)(=O)=O)cc3Cl)c2F)c1` [Ia], the “time to maximum concentration of active metabolite Ia in the first week” value in data set [2] (41.4, 82.8 or 124.2 mg/week, after taking the drug) was “approximately 5.5 hours”. Moreover, the Cmax (in general, the peak of the concentration-time curve) in data set [2] (41.4 mg/week) is 34.5 ng/mL; in data set [2] (82.8 mg/week), 63.6 ng/mL; in data set [2] (124.2 mg/week) it was 117 ng/mL. Also, the concentration at 168 h in data set [2] (41.4 mg/week) came to 26.1 ng/mL; in data set [2] (82.8 mg/week) it was 36.9 ng/mL; in data set [2] (124.2 mg/week) it was 57.2 ng/mL. The entries for the “time of dosing to maximum plasma concentration of active metabolite Ia” value in data set [3] (10 mg/day), in data set [3] (20 mg/day) and in data set [3] (30 mg/day) were 9.8 days, 7.5 days and 6.7 days, respectively.

Take `CCC(=O)[N-]S(=O)(=O)c1ccc(NC(=O)Cc2ccc(Br)c(Oc3cc(Cl)cc(C#N)c3)c2F)c(Cl)c1.[Na+]` [MMSCs of formula Ib, sodium {[4-({[4-bromo-3-(3-chloro-5-cyanophenoxy)-2-fluorophenyl]acetyl}amino)-3-chlorophenyl]-sulfonyl}(propanoyl)azanide]: the “occurrence of a viral load reduction of 10 times and more” value in data set [1] (20 mg versus Efavirenz 600 mg, p=0.053) is listed as “tendency for a statistical difference”. Also, the “efficacy difference between the MMSCs of formula Ib therapy groups” value in data set [1] (20 versus 40 mg/day groups, p=0.804) is listed as “did not differ in effectiveness; also recorded: did not differ in efficacy”. The serious adverse events entry in data set [1] (HIV-1-infected patients) is recorded as “No serious adverse events were observed”. In addition, in data set [1] (doses of 20 and 40 mg, over a period of 12 weeks, versus Efavirenz 600 mg/day), the “effectiveness in reducing the viral load to <400 copies/ml” value was “not inferior to Efavirenz”. In data set [1] (p=0.0237), the “advantage of the 20 mg group over the Efavirenz 600 mg group” value is “statistically significant”. For the same compound, in data set [1], the “development of HIV-1 resistance” value is reported as “No development of HIV-1 resistance was established; also recorded: has not been established”, the viral load decrease is on record as −2.8±0.7 and the viral load change is listed as −3.3±0.7. Also, in data set [1] (week 36, versus Efavirenz, p=0.408), the “frequency of achieving an undetectable HIV-1 RNA level” value is on record as “did not statistically differ; also recorded: did not differ statistically”.
